Assay results: US20090069320A1, “Substituted 4-Amino-Quinazoline Compounds with Metabotropic Glutamate Receptor Regulating Activity and Uses Thereof” (Gruenenthal GmbH, priority 2006, published 2009)
pIC50: −log10 of the molar value. Structures can show the parent of a compound that is named as a salt. Where two headings read alike, the source gives them in different places.

Target: T1, mGluR5 receptor (Sus scrofa, UniProt I3LUI7)
T1 construct: 450 μg of protein from brain homogenate with 5 nM ^3[H]-MPEP; from tissue; host or cells: pig brain halves without medulla, cerebellum and pons
T1 sequence (I3LUI7 19-1212): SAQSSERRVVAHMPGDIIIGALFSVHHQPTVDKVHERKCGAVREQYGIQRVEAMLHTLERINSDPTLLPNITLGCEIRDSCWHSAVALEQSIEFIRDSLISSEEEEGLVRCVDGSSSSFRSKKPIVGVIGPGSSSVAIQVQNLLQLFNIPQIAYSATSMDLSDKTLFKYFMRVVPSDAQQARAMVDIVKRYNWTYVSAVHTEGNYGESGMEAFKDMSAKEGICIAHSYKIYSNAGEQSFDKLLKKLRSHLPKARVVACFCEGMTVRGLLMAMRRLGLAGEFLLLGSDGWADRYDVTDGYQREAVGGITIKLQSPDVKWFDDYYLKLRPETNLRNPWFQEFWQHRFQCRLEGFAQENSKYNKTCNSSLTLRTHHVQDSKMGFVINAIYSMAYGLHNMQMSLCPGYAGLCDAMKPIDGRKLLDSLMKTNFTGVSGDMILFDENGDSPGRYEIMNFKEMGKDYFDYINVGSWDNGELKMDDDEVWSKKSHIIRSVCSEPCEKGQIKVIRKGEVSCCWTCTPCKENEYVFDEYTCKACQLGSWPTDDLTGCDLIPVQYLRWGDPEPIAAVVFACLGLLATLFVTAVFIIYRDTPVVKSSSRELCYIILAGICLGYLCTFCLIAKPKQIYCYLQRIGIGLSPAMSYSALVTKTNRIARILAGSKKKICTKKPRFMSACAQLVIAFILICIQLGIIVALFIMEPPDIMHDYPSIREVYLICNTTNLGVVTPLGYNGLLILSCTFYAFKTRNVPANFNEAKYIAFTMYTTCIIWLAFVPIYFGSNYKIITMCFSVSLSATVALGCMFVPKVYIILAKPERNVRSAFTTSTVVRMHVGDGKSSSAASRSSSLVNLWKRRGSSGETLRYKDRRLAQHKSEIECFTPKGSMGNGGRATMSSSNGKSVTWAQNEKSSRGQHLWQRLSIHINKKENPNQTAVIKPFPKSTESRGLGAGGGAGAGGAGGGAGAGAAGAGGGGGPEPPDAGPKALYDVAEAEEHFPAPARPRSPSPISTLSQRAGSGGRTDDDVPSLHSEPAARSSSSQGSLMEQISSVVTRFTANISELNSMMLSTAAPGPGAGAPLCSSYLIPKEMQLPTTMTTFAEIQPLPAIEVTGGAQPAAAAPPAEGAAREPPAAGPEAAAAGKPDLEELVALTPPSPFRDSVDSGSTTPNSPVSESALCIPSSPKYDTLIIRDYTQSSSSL
Assay: [3H]-MPEP mGluR5 receptor binding assay (pig brain homogenate)
Details: 5 nM [3H]-MPEP; for % Inhibition of mGluR5 Receptor (pig) [^3H]-MPEP Bond at 10 μM / inhibition at 10 µM: 10 μM compound; for inhibition at 10 µM: read-out: % Inhibition of mGluR5 Receptor (pig) [^3H]-MPEP Bond at 10 μM
Outline: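 Radioligand displacement of 5 nM [3H]-MPEP from pig brain homogenate (450 μg protein; medulla, cerebellum and pons removed) in 20 mM Hepes pH 8.0. Compounds were tested at 10 μM, incubated 60 min at room temperature, then filtered and counted by scintillation. Non-specific binding was defined with 10 μM MPEP.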

[1] = read-out: IC50 mGluR5 Receptor (pig) [^3H]-MPEP Bond

SMILES	inhibition at 10 µM	also measured
CC(C)(C)Nc1ncnc2ccc(-c3ccc(F)c(CN(C(=O)c4ccno4)C4CC4)c3)cc12 [Example 834, N-(5-(4-(tert-butylamino)quinazolin-6-yl)-2-fluorobenzyl)-N-cyclopropyl isoxazole-5-carboxamide]		% Inhibition of mGluR5 Receptor (pig) [^3H]-MPEP Bond at 10 μM: 42%
O=C(c1ccccc1)N(Cc1c(F)ccc(-c2ccc3ncnc(NC4CC4)c3c2)c1F)C1CC1 [Example 244, N-cyclopropyl-N-[3-(4-cyclopropylamino-quinazolin-6-yl)-2,6-difluoro-benzyl]-benzamide]		pIC50 [1]: 6.66
CC(C)(C)C(=O)N(Cc1cc(-c2ccc3ncnc(NC4CC4)c3c2)ccc1F)C1CC1 [Example 645, N-cyclopropyl-N-(5-(4-(cyclopropylamino)quinazolin-6-yl)-2-fluorobenzyl)pivalamide]	90%	
O=C(c1ccccn1)N(Cc1cccc(-c2ccc3ncnc(NCCc4ccccc4)c3c2)c1)C1CC1 [Example 370, N-cyclopropyl-N-(3-(4-(phenethylamino)quinazolin-6-yl)benzyl)picolinamide]	52%	
O=C(c1ccccc1)N(Cc1cc(-c2ccc3ncnc(NC4CC4)c3c2)ccc1Cl)C1CC1 [Example 783, N-(2-chloro-5-(4-(cyclopropylamino)quinazolin-6-yl)benzyl)-N-cyclopropyl benzamide]		% Inhibition of mGluR5 Receptor (pig) [^3H]-MPEP Bond at 10 μM: 93%
CCCN(Cc1cccc(-c2ccc3ncnc(Nc4ccccc4)c3c2)c1)C(=O)c1ccccc1 [Example 89, N-[3-(4-phenylamino-quinazolin-6-yl)-benzyl]-N-propyl-benzamide]	52%	
Cc1nc(C(=O)N(Cc2cccc(-c3ccc4ncnc(NCCc5ccccc5)c4c3)c2)C2CC2)cs1 [Example 609, N-cyclopropyl-2-methyl-N-(3-(4-(phenethylamino)quinazolin-6-yl)benzyl)thiazole-4-carboxamide]	30%	
O=C1CCC(=O)N1Cc1cccc(-c2ccc3ncnc(NC4CCCC4)c3c2)c1 [Example 287, 1-(3-(4-(cyclopentylamino)quinazolin-6-yl)benzyl)pyrrolidine-2,5-dione hydrochloride]		pIC50 [1]: 7.22
O=C(c1ccccc1C(F)(F)F)N(Cc1cc(-c2ccc3ncnc(NC4CC4)c3c2)ccc1F)C1CC1 [Example 413, N-cyclopropyl-N-(5-(4-(cyclopropylamino)quinazolin-6-yl)-2-fluorobenzyl)-2-(trifluoromethyl)benzamide]	89%	
COCC(=O)N(Cc1cccc(-c2ccc3ncnc(NCc4cccc(C)c4)c3c2)c1)C1CC1 [Example 434, N-cyclopropyl-2-methoxy-N-(3-(4-(3-methylbenzylamino)quinazolin-6-yl)benzyl)acetamide]	62%	
O=C(c1cccc(F)c1)N(Cc1cc(-c2ccc3ncnc(NC4CC4)c3c2)ccc1Cl)C1CC1 [Example 791, N-(2-chloro-5-(4-(cyclopropylamino)quinazolin-6-yl)benzyl)-N-cyclopropyl-3-fluorobenzamide]	89%	
CC(C)(C)C(=O)N(Cc1cc(-c2ccc3ncnc(NC4CC4)c3c2)ccn1)C1CC1 [Example 828, N-cyclopropyl-N-((4-(4-(cyclopropylamino)quinazolin-6-yl)pyridin-2-yl)methyl)pivalamide]	74%	
COc1ccc(C(=O)N(Cc2cc(-c3ccc4ncnc(NC5CC5)c4c3)ccc2Cl)C2CC2)cc1OC [Example 784, N-(2-chloro-5-(4-(cyclopropylamino)quinazolin-6-yl)benzyl)-N-cyclopropyl-3,4-dimethoxybenzamide]	56%	
O=C(c1ccccc1C(F)(F)F)N(Cc1cc(-c2ccc3ncnc(NC4CC4)c3c2)ccc1Cl)C1CC1 [Example 740, N-(2-chloro-5-(4-(cyclopropylamino)quinazolin-6-yl)benzyl)-N-cyclopropyl-2-(trifluoromethyl)benzamide]	85%	
COc1ccc(CNc2ncnc3ccc(-c4cccc(CN(C(=O)c5cc(C)nn5C)C5CC5)c4)cc23)c(OC)c1 [Example 730, N-cyclopropyl-N-(3-(4-(2,4-dimethoxybenzylamino)quinazolin-6-yl)benzyl)-1,3-dimethyl-1H-pyrazole-5-carboxamide]	35%	
O=C(C1CCCCC1)N(Cc1cccc(-c2ccc3ncnc(NC4CC4)c3c2)c1)C1CC1 [Example 265, N-cyclopropyl-N-(3-(4-(cyclopropylamino)quinazolin-6-yl)benzyl)cyclohexane carboxamide]		pIC50 [1]: 5.72
O=C(c1ccccn1)N(Cc1cc(-c2ccc3ncnc(NC4CC4)c3c2)ccc1Cl)C1CC1 [Example 755, N-(2-chloro-5-(4-(cyclopropylamino)quinazolin-6-yl)benzyl)-N-cyclopropylpicolinamide]	78%	
O=C(CF)N(Cc1cccc(-c2ccc3ncnc(NC4CC4)c3c2)c1)C1CC1 [Example 208, N-cyclopropyl-N-[3-(4-cyclopropylamino-quinazolin-6-yl)-benzyl]-2-fluoro-acetamide]		pIC50 (IC50 mGluR5 Receptor (pig) [^3H]-MPEP Bond): 6.92
CCCN(Cc1cccc(-c2ccc3ncnc(Nc4ccccc4)c3c2)c1)C(=O)c1sccc1C [Example 110, 3-methyl-thiophene-2-carboxylic acid [3-(4-phenylamino-quinazolin-6-yl)-benzyl]-propyl-amide]	43%	
O=C(c1ccncc1)N(Cc1cc(-c2ccc3ncnc(NC4CC4)c3c2)ccc1F)C1CC1 [Example 436, N-cyclopropyl-N-(5-(4-(cyclopropylamino)quinazolin-6-yl)-2-fluorobenzyl)isonicotinamide]	98%	
CCCCC(=O)N(Cc1cccc(-c2ccc3ncnc(NC4CC4)c3c2)c1)C1CC1 [Example 256, pentanoic acid cyclopropyl-[3-(4-cyclopropylamino-quinazolin-6-yl)-benzyl]-amide]		pIC50 [1]: 5.83
CC(=O)N(Cc1cccc(-c2cc(F)c3ncnc(NC4CC4)c3c2)c1)C1CC1 [Example 716, N-cyclopropyl-N-(3-(4-(cyclopropylamino)-8-fluoroquinazolin-6-yl)benzyl)acetamide]		pIC50 [1]: 6.92
O=C(c1cccc(C(F)(F)F)c1)N(Cc1cc(-c2ccc3ncnc(NC4CC4)c3c2)ccc1Cl)C1CC1 [Example 732, N-(2-chloro-5-(4-(cyclopropylamino)quinazolin-6-yl)benzyl)-N-cyclopropyl-3-(trifluoromethyl)benzamide]	63%	
CCCCNc1ncnc2ccc(-c3cccc(CN4C(=O)CCC4=O)c3)cc12 [Example 286, 1-(3-(4-(butylamino)quinazolin-6-yl)benzyl)pyrrolidine-2,5-dione hydrochloride]		pIC50 [1]: 6.41
CCN(Cc1cccc(-c2ccc3ncnc(NC4CC4)c3c2)c1)C(C)=O [Example 894, N-(3-(4-(cyclopropylamino)quinazolin-6-yl)benzyl)-N-ethylacetamide]		pIC50 [1]: 6.00

Further lines, with some results ahead:

inhibition at 10 µM	SMILES	also measured
96%	Cc1cc2ncnc(NC3CC3)c2cc1-c1cccc(CN(C(=O)c2ccccc2C(F)(F)F)C2CC2)c1 [Example 684, N-cyclopropyl-N-(3-(4-(cyclopropylamino)-7-methylquinazolin-6-yl)benzyl)-2-(trifluoromethyl)benzamide]	
84%	O=C(c1ccccc1C(F)(F)F)N(Cc1cccc(-c2cc(F)c3ncnc(NC4CC4)c3c2)c1)C1CC1 [Example 789, N-cyclopropyl-N-(3-(4-(cyclopropylamino)-8-fluoroquinazolin-6-yl)benzyl)-2-(trifluoromethyl)benzamide]	
92%	O=C(c1c(F)c(F)c(F)c(F)c1F)N(Cc1cc(-c2ccc3ncnc(NC4CC4)c3c2)ccc1Cl)C1CC1 [Example 859, N-(2-chloro-5-(4-(cyclopropylamino)quinazolin-6-yl)benzyl)-N-cyclopropyl-2,3,4,5,6-pentafluorobenzamide]	
98%	O=C(c1ccc(F)cc1F)N(Cc1cccc(-c2cc(F)c3ncnc(NC4CC4)c3c2)c1)C1CC1 [Example 619, N-cyclopropyl-N-(3-(4-(cyclopropylamino)-8-fluoroquinazolin-6-yl)benzyl)-2,4-difluorobenzamide]	
81%	COc1ccc(C(=O)N(Cc2cccc(-c3cc(F)c4ncnc(NC5CC5)c4c3)c2)C2CC2)cc1OC [Example 700, N-cyclopropyl-N-(3-(4-(cyclopropylamino)-8-fluoroquinazolin-6-yl)benzyl)-3,4-dimethoxybenzamide]	
93%	O=S(=O)(c1cccs1)N(Cc1cccc(-c2cc(F)c3ncnc(NC4CC4)c3c2)c1)C1CC1 [Example 701, N-cyclopropyl-N-(3-(4-(cyclopropylamino)-8-fluoroquinazolin-6-yl)benzyl)thiophene-2-sulfonamide]	
87%	O=C(c1ccc(C(F)(F)F)cc1F)N(Cc1cc(-c2ccc3ncnc(NC4CC4)c3c2)ccc1F)C1CC1 [Example 397, N-cyclopropyl-N-(5-(4-(cyclopropylamino)quinazolin-6-yl)-2-fluorobenzyl)-2-fluoro-4-(trifluoromethyl)benzamide]	
62%	O=C(c1c(F)c(F)c(F)c(F)c1F)N(Cc1cccc(-c2cc(F)c3ncnc(NC4CC4)c3c2)c1)C1CC1 [Example 752, N-cyclopropyl-N-(3-(4-(cyclopropylamino)-8-fluoroquinazolin-6-yl)benzyl)-2,3,4,5,6-pentafluorobenzamide]	
90%	O=C(c1ccc(F)cc1F)N(Cc1cc(-c2ccc3ncnc(NC4CC4)c3c2)ccc1F)C1CC1 [Example 381, N-cyclopropyl-N-(5-(4-(cyclopropylamino)quinazolin-6-yl)-2-fluorobenzyl)-2,4-difluorobenzamide]	
